Our source for the inhibition in vivo values is patent publication US9365520B2, “Heterocyclic compound” (Takeda Pharmaceutical Company Limited, priority 2014, dated 2016).

Structures are written as SMILES.

The test concerns IL-17A gene expression. Briefly: Effect on IL-23-induced cytokine expression in mice. The format is in vivo, Balb/c mice. The settings on record: Mus musculus, 24 h; 10 mg/kg oral, 30 min before and 8 hr after IL-23; ear tissue; versus the negative control group; read-out: percent inhibition of IL-17A gene expression. How it is done:
Effect on IL-23-Induced Cytokine Expression in Mice
A mouse IL-23 solution (500 ng/10 μL, prepared by Takeda Pharmaceutical Company Limited) or PBS (10 μL, negative control group) was administered intradermally in the ear of Balb/c mice (Charles River Japan, male, 7 weeks old). Twenty-four hr after administration, the ear was resected under isoflurane anesthesia. The test compound was suspended in 0.5% methylcellulose and administered orally 30 min before and 8 hr after IL-23 administration.
RNA extraction from the ear tissue and quantitative PCR were performed as follows. Specifically, ear tissue 5 mm in diameter was punched from an area of the resected ear centering on the IL-23 injection site, and the tissue was immersed in RNAlater (QIAGEN) for at least 18 hr. The RNAlater-treated ear tissue was homogenized in 350 μL of RLT buffer (RNeasy mini kit, QIAGEN) and treated (55° C., 10 min) with Proteinase K (QIAGEN). Total RNA was then extracted according to the RNeasy mini kit protocol. The RNA thus obtained was then reverse transcribed into cDNA using the High-Capacity RNA-to-cDNA kit (Applied Biosystems), and the amount of each gene expressions was measured by real-time PCR (Viia7™, Applied Biosystems). The PCR buffer used was TaqMan Fast Advanced Master Mix (Applied Biosystems), and TaqMan Gene Expression Assays (Applied Biosystems) Mm00439618_m1 (IL-17A) and 4352341E (β-actin) were used for each gene detection. The IL-17A gene expression level was normalized to the β-actin gene expression level, and the percent inhibition of IL-17A gene expression with the test compound was then calculated.
The results (percent inhibition of IL-17A gene expression with oral administration of the test compound) measured by the above-mentioned method are shown in Table 9.
Take `COc1ccc2c(c1)CCN(C(=O)C1CC(CC(=O)O)C1)[C@H]2C(=O)Nc1cc(F)c([Si](C)(C)C)c(F)c1` (stereo partly drawn) [Example 4, (3-(((1R)-1-((3,5-difluoro-4-(trimethylsilyl)phenyl)carbamoyl)-6-methoxy-3,4-dihydroisoquinolin-2(1H)-yl)carbonyl)cyclobutyl)acetic acid]: the inhibition in vivo at 10 mg/kg was 86%.
With `COc1ccc2c(c1)CCN(C(=O)[C@H]1C[C@@H](C(=O)O)C1)[C@H]2C(=O)Nc1cc(F)c([Si](C)(C)C)c(F)c1` [Example 5, cis-3-(((1R)-1-((3,5-difluoro-4-(trimethylsilyl)phenyl)carbamoyl)-6-methoxy-3,4-dihydroisoquinolin-2(1H)-yl)carbonyl)cyclobutanecarboxylic acid], the inhibition in vivo at 10 mg/kg was 57%.
On to `COc1ccc2c(n1)CCN(C(=O)[C@H]1C[C@@H]1CC(=O)O)[C@H]2C(=O)Nc1cc(F)c2c(c1)CCC2(C)C` [Example 6, ((1R,2S)-2-(((5R)-5-((7-fluoro-1,1-dimethyl-2,3-dihydro-1H-inden-5-yl)carbamoyl)-2-methoxy-7,8-dihydro-1,6-naphthyridin-6(5H)-yl)carbonyl)cyclopropyl)acetic acid], for which the inhibition in vivo at 10 mg/kg is 95%.
Regarding `CCOc1ccc2c(c1)CCN(C(=O)[C@H]1C[C@@H](C(=O)O)C1)[C@H]2C(=O)Nc1cc(F)c([Si](C)(C)C)c(F)c1` [Example 8, cis-3-(((1R)-1-((3,5-difluoro-4-(trimethylsilyl)phenyl)carbamoyl)-6-ethoxy-3,4-dihydroisoquinolin-2(1H)-yl)carbonyl)cyclobutanecarboxylic acid], the inhibition in vivo at 10 mg/kg turned out to be 72%.
Turning to `CCOc1ccc2c(c1)CCN(C(=O)[C@H]1C[C@H](C(=O)O)C1)[C@H]2C(=O)Nc1cc(F)c([Si](C)(C)C)c(F)c1` [Example 9, trans-3-(((1R)-1-((3,5-difluoro-4-(trimethylsilyl)phenyl)carbamoyl)-6-ethoxy-3,4-dihydroisoquinolin-2(1H)-yl)carbonyl)cyclobutanecarboxylic acid], the inhibition in vivo at 10 mg/kg is 57%.
Under `COc1ccc2c(n1)CCN(C(=O)[C@H]1C[C@@H]1CC(=O)O)[C@H]2C(=O)Nc1cc(F)c([Si](C)(C)C)c(F)c1` [Example 13, ((1R,2S)-2-(((5R)-5-((3,5-difluoro-4-(trimethylsilyl)phenyl)carbamoyl)-2-methoxy-7,8-dihydro-1,6-naphthyridin-6(5H)-yl)carbonyl)cyclopropyl)acetic acid] stands 91%; under `CCOCC(C)(C)c1c(F)cc(NC(=O)[C@H]2c3ccc(OCC)cc3CCN2C(=O)[C@H]2C[C@@H](CC(=O)O)C2)cc1F` [Example 18, (cis-3-(((1R)-6-ethoxy-1-((4-(1-ethoxy-2-methylpropan-2-yl)-3,5-difluorophenyl)carbamoyl)-3,4-dihydroisoquinolin-2(1H)-yl)carbonyl)cyclobutyl)acetic acid], 72%; under `COCc1ccc2c(c1)CCN(C(=O)[C@H]1C[C@@H](CC(=O)O)C1)[C@H]2C(=O)Nc1cc(F)c2c(c1)CCC2(C)C` [Example 19, (cis-3-(((1R)-1-((7-fluoro-1,1-dimethyl-2,3-dihydro-1H-inden-5-yl)carbamoyl)-6-(methoxymethyl)-3,4-dihydroisoquinolin-2(1H)-yl)carbonyl)cyclobutyl)acetic acid], 90%.
For `COc1ccc2c(n1)CCN(C(=O)[C@H]1C[C@H](CC(=O)O)C1)[C@H]2C(=O)Nc1cc(F)c2c(c1)CCC2(C)C` [Example 20, (trans-3-(((5R)-5-((7-fluoro-1,1-dimethyl-2,3-dihydro-1H-inden-5-yl)carbamoyl)-2-methoxy-7,8-dihydro-1,6-naphthyridin-6(5H)-yl)carbonyl)cyclobutyl)acetic acid], the inhibition in vivo at 10 mg/kg was determined as 99%.
